Experimental data: US4400510A, “A-32256 Phenazine antibiotic” (Eli Lilly and Company, priority 1981, dated 1983)

Assays:
Bacteroides fragilis = experiment: agar-dilution MIC vs. Bacteroides species; assay type: cell-based; settings: 24 hours, Table 8
Method: (§1) The agar-dilution procedure described by the International Collaborative Study (ICS) group was used to determine MIC values.
(§2) The MIC values were determined by the agar-dilution method, the endpoints being read 24 hours after incubation, and are recorded in Table 8, which follows.

B. vulgatis = experiment: agar-dilution MIC vs. Bacteroides species; assay type: cell-based; settings: B. vulgatis 1563; 24 hours; Table 8
Method: as §1, §2

B. thetaiotaomicron = experiment: agar-dilution MIC vs. Bacteroides species; assay type: cell-based; settings: 24 hours, Table 8
Method: as §1, §2

B. corrodens = experiment: agar-dilution MIC vs. Bacteroides species; assay type: cell-based; settings: B. corrodens 1874; 24 hours; Table 8
Method: as §1, §2

[1] = test system: Peptococcus asaccharolyticus; experiment: agar-dilution MIC vs. anaerobic bacteria; assay type: cell-based; settings: strain 1302; Table 6
Clostridium perfringens = experiment: microbe, parasite or virus in culture; assay type: cell-based; settings: Clostridium perfringens, strain 81; Table 6
Eubacterium aerofaciens = experiment: agar-dilution MIC vs. anaerobic bacteria; assay type: cell-based; settings: strain 1235; Table 6
Propionibacterium acnes = experiment: agar-dilution MIC against Propionibacterium acnes; assay type: cell-based; settings: Cutibacterium acnes, Table 7
Text: as §1
Antibiotic A-32256 is also active against a genus of anaerobic bacteria identified as Propionibacterium acnes, the MIC values being determined by the agar-dilution method, and set forth in Table 7, which follows.

[2] = test system: Peptostreptococcus anaerobius; experiment: agar-dilution MIC vs. anaerobic bacteria; assay type: cell-based; settings: strain 1428, Table 6
[3] = test system: Streptococcus sp. (Group D); experiment: disc-plate screening procedure, zone of inhibition; settings: read-out: Zone Diameter

Cc1cccc(O)c1C(=O)OC(C)c1cccc2nc3c(C(=O)O)cccc3nc12 (centres unmarked) [Antibiotic A-32256, 6-[1-[(2-hydroxy-6-methylbenzoyl)oxy]-ethyl]-1-phenazinecarboxylic acid]
0.5 µg/mL: MIC (Bacteroides fragilis; B. fragilis 103) | MIC (Bacteroides fragilis; B. fragilis 106) | MIC (Bacteroides fragilis; B. fragilis 110) | MIC (Bacteroides fragilis; B. fragilis 112) | MIC (Bacteroides fragilis; B. fragilis 1470)
16 µg/mL: MIC [1]
1.0 µg/mL: MIC (Bacteroides fragilis; B. fragilis 2) | MIC (Bacteroides fragilis; B. fragilis 9) | MIC (Bacteroides fragilis; B. fragilis 62) | MIC (Bacteroides fragilis; B. fragilis 104) | MIC (Bacteroides fragilis; B. fragilis 108) | MIC (Bacteroides fragilis; B. fragilis 111) | MIC (Bacteroides fragilis; B. fragilis 113) | MIC (Bacteroides fragilis; B. fragilis 1877) | MIC (B. vulgatis) | MIC (B. thetaiotaomicron; B. thetaiotaomicron 1438) | MIC (B. thetaiotaomicron; B. thetaiotaomicron 1900A)
18.2 mm: zone of inhibition at 30 µg/disc [3]
0.03 µg/mL: MIC (Propionibacterium acnes; P. acnes 105) | MIC (Propionibacterium acnes; P. acnes 108) | MIC (Propionibacterium acnes; P. acnes 5229)
0.06 µg/mL: MIC (Propionibacterium acnes; P. acnes 106) | MIC (Propionibacterium acnes; P. acnes 5191)
2 µg/mL: MIC (Bacteroides fragilis; B. fragilis 107) | MIC (Bacteroides fragilis; V. fragilis 1451 (so in the source)) | MIC (Clostridium perfringens) | MIC (Eubacterium aerofaciens)
21 mm: zone of inhibition at 300 µg/disc [3]
0.25 µg/mL: MIC (B. corrodens)
≤ 0.015 µg/mL: MIC (Propionibacterium acnes; P. acnes 44) | MIC (Propionibacterium acnes; P. acnes 79) | MIC (Propionibacterium acnes; P. acnes 101) | MIC (Propionibacterium acnes; P. acnes 103) | MIC (Propionibacterium acnes; P. acnes 104) | MIC (Propionibacterium acnes; P. acnes 107) | MIC (Propionibacterium acnes; P. acnes 5170) | MIC (Propionibacterium acnes; P. acnes 5176) | MIC (Propionibacterium acnes; P. acnes 5187) | MIC (Propionibacterium acnes; P. acnes 5197) | MIC (Propionibacterium acnes; P. acnes 5226) | MIC (Propionibacterium acnes; P. acnes 5227) | MIC (Propionibacterium acnes; P. acnes 5228) | MIC (Propionibacterium acnes; P. acnes 5246)
≤ 0.5 µg/mL: MIC [2]
